Laboratory results as given in patent US6649646B2, “Insecticidal and miticidal compositions” (priority 1996, dated 2003).

Test system: Kanzawa spider mite (Tetranychus kanzawai kishida) which had acquired a strong resistance to chlorfenapyr
Experiment: Miticidal effect against female imagines of chlorfenapyr-resistant Kanzawa spider mite, leaf disk spray test
Format: in vivo
Details: LC50 resistant strain relative to susceptible strain
Text: For a T value equal to 100, an additive action is indicated.

Row | Compound | resistance to chlorfenapyr of the resistant strain versus susceptible strain [fold]
1 | CCOCn1c(-c2ccc(Cl)cc2)c(C#N)c(Br)c1C(F)(F)F [Chlorfenapyr, 4-Bromo-2-(4-chlorophenyl)-1-(ethoxymethyl)-5-(trifluoromethyl)pyrrole-3-carbonitrile] | ~300

Same assay, conditions: in vivo

Row | Compound | LC50 [ppm]
2 | CCCSP(=S)(OCC)Oc1ccc(Cl)cc1Cl (stereo not drawn) [Prothiophos, O-2,4-Dichlorophenyl-O-ethyl-S-propylphosphorodithioate] | 260

Same assay, conditions: single test compound; female imago, chlorfenapyr-resistant strain; mortality two days after spray treatment, 25±1° C.; probit analysis

Row | Compound | LC50 [ppm]
3 | COP(=S)(OC)Oc1ccc(C#N)cc1 [CYAP, O,O-Dimethyl-O-p-cyanophenylthiophosphate] | 3200
4 | CCOCn1c(-c2ccc(Cl)cc2)c(C#N)c(Br)c1C(F)(F)F [Chlorfenapyr, 4-Bromo-2-(4-chlorophenyl)-1-(ethoxymethyl)-5-(trifluoromethyl)pyrrole-3-carbonitrile] | 1500
5 | CCOP(=S)(OCC)Oc1nc(Cl)c(Cl)cc1Cl [Chlorpyrifos, O,O-Diethyl-O-3,5,6-trichloro-2-pyridylphosphorothioate] | 3200
6 | COP(=S)(OC)Oc1nc(Cl)c(Cl)cc1Cl [Chlorpyrifosmethyl, O,O-Dimethyl-O-3,5,6-trichloro-2-pyridylphosphorothioate] | 790
7 | CCOP(=S)(OCC)Oc1cc(C)nc(C(C)C)n1 [Diazinon, (2-isopropyl-4-methylpyrimidyl-6)-diethylthiophosphate] | 3200
8 | CCOP(=S)(Oc1ccc([N+](=O)[O-])cc1)c1ccccc1 (stereo not drawn) [EPN, Ethyl p-nitrophenylthionobenzenephosphonate] | 3100
9 | CCOP(=S)(OCC)SCSP(=S)(OCC)OCC [Ethion, O,O,O′,O′-Tetraethyl-S,S′-methylenebisphosphorodithioate] | 3100
10 | CC(C)OP(=O)(OC(C)C)SCc1ccccc1 [IBP, O,O-Diisopropyl-S-benzylthiophosphate] | 1300
11 | COP(=S)(OC)Oc1ccc([N+](=O)[O-])c(C)c1 [MEP, O,O-Dimethyl-O-(3-methyl-4-nitrophenyl)thiophosphate] | 3200
12 | COP(=S)(OC)Oc1ccc(SC)c(C)c1 [MPP, O,O-Dimethyl-O-[3-methyl-4-(methylthio)phenyl]-thiophosphate] | 1100
13 | CCOC(=O)CC(SP(=S)(OC)OC)C(=O)OCC (stereo not drawn) [Malathon, Dimethyldicarbethoxyethyldithiophosphate] | 3400
14 | CCOC(=O)C(SP(=S)(OC)OC)c1ccccc1 (stereo not drawn) [PAP, Ethyl dimethyldithiophosphorylphenylacetate] | 2000
15 | CCOP(=S)(OCC)SCn1c(=O)oc2cc(Cl)ccc21 [Phosalone, 3-Diethoxyphosphorylthiomethyl-6-chlorobenzoxazolone] | 350
16 | CCOP(=S)(OCC)Oc1ccc(=O)n(-c2ccccc2)n1 [Pyridaphenthion, O,O-Diethyl-O-(3-oxo-2-phenyl-2H-pyridazin-6-yl) phosphorothioate] | 1900
17 | CCCSP(=S)(OCC)Oc1ccc(SC)cc1 (stereo not drawn) [Sulprofos, O-Ethyl-O-4-methylthiophenyl-S-propyl-phosphorodithioate] | 320

Test system: susceptible strain of spider mite
Experiment: LC50 against a susceptible strain of spider mite
Format: in vivo
Details: not given

Row | Compound | LC50
18 | CCOCn1c(-c2ccc(Cl)cc2)c(C#N)c(Br)c1C(F)(F)F [Chlorfenapyr, 4-Bromo-2-(4-chlorophenyl)-1-(ethoxymethyl)-5-(trifluoromethyl)pyrrole-3-carbonitrile] | about 5 ppm
